Reference: patent US7087228B2, “Preventing tooth decay and infective endocarditis using natural oligopeptides” (University of Southern California, priority 2002, dated 2006)

Columns and labels:
[1] = test system: GTFB expression in the wild-type S. mutans; experiment: Western blot of GTFB expression after addition of CSP to cultures; format: cell-based; settings: CSP added to fresh cultures at the time of dilution, 1 to 8 mcg/mL, FIG. 6 panel 1
Experimental: (§1) For the Western blotting, the bacteria were incubated to the desired optical density, subjected to the freeze-thaw cycle and mixed with the sample loading buffer. The samples were heated at 100° C. for 15 minutes and subjected to the PAGE. The number of cells per lane of the gel was kept constant at 10^8 cells. The western blotting was performed in accordance with a standard procedure (Sambrook, J. and Russel D. W. Molecular Cloning, a laboratory manual, 3rd ed. Cold Spring Harbor Laboratory Press, NY, 2001). Briefly, after PAGE the samples were transferred onto the nitrocellulose membrane and the latter subjected to the standard ELISA procedure. The anti-GTFB mouse monoclonal antibody was previously characterized (Fukushima, K., Okada, T., Ochiai, K., Infection and Immunity 61:323–328 (1993), incorporated herein by reference). The secondary antibody (HRP-linked goat anti-mouse) and the detection reagents were purchased from Cell Signaling Technology (Beverly, Mass.).
(§2) Synthetic CSP was dissolved in water to the concentration of 1 mg/mL as described in Li, Y-H et al., J. of Bact., 183:897–908 (2001). […]
(§3) A Western blot analysis was performed to determine the effect of CSP on the level of GTFB expression. […] As a control, the same blot was analyzed with antibody specific to FTF, where it was observed that CSP has no effect on FTF expression (FIG. 6, panel 2).

FTF expression = experiment: Western blot control with antibody specific to FTF; format: cell-based, S. mutans; settings: same blot analyzed with antibody specific to FTF; FIG. 6 panel 2
Experimental: as §1, §2, §3

gtfB gene of S. mutans = experiment: Transcriptional fusion assay (gtfB promoter-luciferase, luminescence); format: cell-based; settings: increasing concentrations of CSP, 10 minutes incubation at peak expression (end of lag phase); FIG. 7
From the text: The fusion constructs and the transcription assay were previously described (Goodman, S. D. and Gao, Q., Plasmid 43:85–98 (2000)). Briefly, the constructs comprised the upstream regions of the gtfB and gtfC genes fused to the promoterless coding sequence of the firefly luciferase gene and inserted into the plasmid vector pVA838, a shuttle plasmid capable of propagating in both E. coli and S. mutans marked with erythromycin resistance. The plasmids were introduced into S. mutans GS5 by electroporation and the resulting erythromycin resistant strains were grown in liquid cultures and collected at various optical densities. The reporter gene (luciferase) expression was detected by measuring luminescence upon the addition of luciferin (the substrate for luciferase), see Goodman, S. D. and Gao Q. Plasmid 42:154–157 (1999), incorporated herein by reference.
as §2
The transcriptional fusion assay was performed to determine whether CSP inhibits the expression of the gtfB gene of S. mutans. […] When the expression peaked at the end of the lag phase prior to the exponential growth, the cells were challenged with increasing concentrations of CSP for an incubation period of 10 minutes and assessed for luminescence, the measure of reporter gene expression. […]

S. mutans = experiment: In vitro attachment assay to a smooth surface (Petri dish) with sucrose; format: cell-based; settings: CSP at 8 μg/mL for 10 minutes prior to hour-long incubation on Petri dishes with sucrose; up to 51% without CSP; FIG. 8
Experimental: The bacteria were grown in liquid cultures to the desired optical density. 20 ml of the cultures were then transferred into Petri dishes and sucrose added to the final concentration of 2%. The incubation was resumed for one hour, after which the liquid fraction was withdrawn and the fresh medium was added into which the layer of attached cells was scraped. The percentage of the attached bacteria was determined as the ratio of the optical densities of the attached to the total (a sum of attached and unattached) bacteria.
Synthetic CSP was dissolved in water to the concentration of 1 mg/mL as described in Li, Y-H et al., J. of Bact., 183:897–908 (2001). The cultures were grown in Todd Hewitt Broth (THB) supplemented with 5% horse serum. CSP was added to the cultures at the time of diluting the overnight culture (time zero of the culture growth) to a designated concentration between 1 and 8 mcg/mL. The incubation then continued up to the optical density where the expression of GTF is maximal (OD 650=0.1). The cultures where then collected and used in Western blotting with anti-glucosyltransferase (gtf) antibody. […]
An in vitro assay was performed to determine whether CSP can inhibit the attachment of S. mutans to a smooth surface. When sucrose was added to the medium, the wild-type S. mutans readily attached to the surface of a Petri dish. […]

## CSP: natural peptide produced and secreted by S. mutans that acts as an autoinducer; sequence SEQ ID NO: 1 (FIG. 1); synthetic CSP was used (SGSLSTFFRLFNRSFTQALGK; Streptococcus mutans)
[1]
  peak expression of GTFB (Western blot): lowered proportionally to the amount of peptide added
FTF expression
  effect on FTF expression (Western blot): no effect
gtfB gene of S. mutans
  repression of gtfB reporter gene expression (luminescence): increasing concentrations of CSP increased the magnitude of repression
S. mutans
  bacterial cells localized to the attached layer: less than 8%
